Experimental findings from US11419916B2, “Methods and compositions for inducing differentiation of human brown adipocyte progenitors” (Energesis Pharmaceuticals, Inc., priority 2014, dated 2022) are described below.

One test deals with CD31-cells. The test is described as follows: Light microscopic photos of cell morphology, brown adipocyte differentiation. Type of test: cell-based, human. Particulars: FIGS. 23A-23H. The method, then: (§1) Cells were seeded at 10,000 per cm^2 in 0.2% gelatin coated plates (48-well tissue culture, Chemglass #CLS-3500-048), cultured until confluency (2-4 days) at 37° C. in Endothelial cell growth medium-2 (EGM2) (BulletKit growth medium, Lonza #CC-3162) and until differentiation (10-16 more days). After 2 or 3 days in EGM2 medium the cells were induced to differentiate by replacing the medium with an adipogenic medium, which is a modification of the adipogenic medium described by Rodriguez et al. and may or may not contain a differentiation inducing agent (e.g., PPARγ agonist). The MDM described above contains: DMEM/Ham's F-12 50/50 Mix (3.151 g/l, 17.5 mM D-glucose, 3.651 g/l L-glutamine) (Cellgro #10-090-CV), 5 μg/ml (0.86 μM) insulin, 1 μM dexamethasone, 100 μM 3-isobutyl-1-methylxanthine, 0.2 nM 3,3′,5-triiodo-L-thyronine, 10 μg/ml (127 nM) transferrin, and 1% penicillin-streptomycin. If rosiglitazone is used as a differentiation-inducing agent, it can be supplied at 1 μM or any other concentration sufficient to induce differentiation of BAT progenitor cells into adipocytes.
Pictures of cells were taken using a hand-held digital camera (Nikon Coolpix 950) and inverted microscope (Nikon TMS) used for cell culture observations; images were optimized using Adobe Photoshop Elements 8 functions for Auto Contrast and Auto Levels.

Test [1] has as its system CD31-cells (brown adipocyte progenitors). Briefly: Quantification of UCP1 protein by immunohistochemistry (IHC). Type of test: cell-based, human. Particulars: total intensity of UCP1 signal normalized to cell number. The method, then: Differentiation of brown adipocyte progenitors into brown adipocytes can be detected through quantification of UCP1 protein by immunohistochemistry (IHC).
Culturing and differentiation of CD31-cells into brown adipocytes were performed using adipogenic differentiation medium lacking (Minimal Differentiation Medium, MDM) or containing 1 μM rosiglitazone (Reference Differentiation Medium, RDM). After 15 days of differentiation cells were fixed with 4% Paraformaldehyde PBS pH 7.4, and incubated with a UCP1 antibody (Abcam ab23841) and Alexafluor 488 goat anti-rabbit antibody to quantify relative UCP1 levels (green) according to standard protocols. Prior to fixation of cells, nuclei were labeled with 5 μM DAPI (blue) for 10 minutes. Each treatment condition was evaluated in triplicate in a 96-well plate corresponding to approximately 360-480 cells for each data point in total. The InCell 1000 Developer Toolbox software was used to develop an automated cell detection script to measure UCP1 signal intensity, using the nuclei and cytoplasm detection algorithms. As a readout, total intensity of UCP1 signal within the cell was used, normalized to cell number.

For test [2], the system named is CD31-cells (BAT progenitor cells isolated from human skeletal muscle). Briefly: Quantification of UCP1 and PPARγ2 mRNA (normalized to cyclophilin A) by multiplexed TaqMan real-time PCR to quantify differentiation into brown adipocytes. Type of test: cell-based.
Excerpt: A robust method, previously disclosed in WO2013071063 and incorporated herein by reference, was used for detection of CD31-cell differentiation into brown adipocytes by simultaneously quantifying mRNA species corresponding to the brown adipocyte marker UCP1, the adipocyte marker PPARγ2, and the “housekeeping” gene cyclophilin A which was used as the internal control.
This method permits analysis of a large number of samples to identify agents that enhance the differentiation of CD31-cells into brown adipocytes. When differentiated into brown adipocytes CD31-cells express much higher levels of UCP1 and PPARγ2 mRNA for a given level of cyclophilin A. UCP1 and PPARγ2 mRNA levels normalized to cyclophilin A mRNA levels give an indication of the level of differentiation of the CD31-cells into brown adipocytes, independent of the total number of cells in the sample.
Quantification of UCP1, PPARγ2 and cyclophilin A mRNA by multiplexed TaqMan real-time PCR was thus used to quantify differentiation of the CD31-cells into brown adipocytes.
as §1, with “The MDM described above contains: DMEM/Ham's F-12 50/50 Mix (3.151 g/l, 17.5 mM D-glucose, 3.651 g/l L-glutamine) (Cellgro #10-090-CV), 5 μg/ml (0.86 μM) insulin, 1 μM dexamethasone, 100 μM 3-isobutyl-1-methylxanthine, 0.2 nM 3,3′,5-triiodo-L-thyronine, 10 μg/ml (127 nM) transferrin, and 1% penicillin-streptomycin.” left out
Total RNA was prepared from cells using PureLink RNA Isolation Kit (Invitrogen #12183-016) First strand cDNA were synthesized using the High Capacity cDNA Reverse Transcription kit (Applied Biosystems, Foster City, Calif.) and random primers.
Quantitative real-time PCR was performed using an Applied Biosystems StepOnePlus™ instrument, TaqMan Gene Expression Master Mix (Applied Biosystems #4369016), and custom TaqMan gene expression probes and primers for human uncoupling protein-1 “UCP1” (GenBank NM_021833) and for human peptidylprolyl isomerase A “cyclophilin A” (GenBank NM_021130).
Cyclophilin A was used as a control to account for any variations due to the efficiency of reverse transcription. Arbitrary units were determined by normalizing target mRNA levels to cyclophilin A mRNA levels (based on Cts).

Where a name gives a salt, the structure may show the parent alone.

In the case of `CCOC(=O)Oc1c(OC)cc(C(=O)O[C@@H]2C[C@@H]3CN4CCc5c([nH]c6cc(OC)ccc56)[C@H]4C[C@@H]3[C@H](C(=O)OC)[C@H]2OC)cc1OC` [Syrosingopine], the “brown adipocyte differentiation (light microscopy)” value (“brown adipocyte differentiation” for short) in the test on CD31-cells is listed as “promote brown adipocyte formation”. In addition, the “UCP1 protein signal (IHC), differentiation of brown adipocyte progenitors into brown adipocytes” value in test [1] was “identified using this technique”.
On the same counts, the results for `CCN(CC)CCNC(=O)c1cc(S(C)(=O)=O)ccc1OC` [Tiapride hydrochloride] are “promote brown adipocyte formation” and “identified using this technique”.
On the same counts, the results for `O=C(O)c1cc(-c2ccc(F)cc2F)ccc1O` [Diflunisal] are “promote brown adipocyte formation” and “identified using this technique”.
For `O=c1c(O)c(-c2ccc(O)cc2)oc2cc(O)cc(O)c12` [kaempferol], in test [2], the “differentiation of BAT progenitor cells into brown adipocytes and/or expression of UCP1, PPARγ2 mRNA” value is listed as “promote the differentiation of BAT progenitor cells into brown adipocytes and/or induce the expression of UCP1”. Moreover, the “brown adipocyte differentiation” value in the test with CD31-cells was “promote brown adipocyte formation”.
On to `CCCN(CCC)S(=O)(=O)c1ccc(C(=O)O)cc1` [Probenecid], for which, in the test with CD31-cells, the “brown adipocyte differentiation” value is on record as “promote brown adipocyte formation”. Also, in test [1], the “UCP1 protein signal (IHC), differentiation of brown adipocyte progenitors into brown adipocytes” value was “identified using this technique”.

B1: BMP-7: recombinant human bone morphogenetic protein 7, UniProt P18075 (protein, UniProt P18075 293-431, looked up)
Bone morphogenetic protein 7: STGSKQRSQNRSKTPKNQEALRMANVAENSSSDQRQACKKHELYVSFRDLGWQDWIIAPEGYAAYYCEGECAFPLNSYMNATNHAIVQTLVHFINPETVPKPCCAPTQLNAISVLYFDDSSNVILKKYRNMVVRACGCH
Regarding B1, the “differentiation of BAT progenitor cells into brown adipocytes and/or expression of UCP1, PPARγ2 mRNA” value in test [2] is given as “promote the differentiation of BAT progenitor cells into brown adipocytes and/or induce the expression of UCP1”. Moreover, the “brown adipocyte differentiation” value in the test with CD31-cells is recorded as “promote brown adipocyte formation”.
